Reference: patent publication US20230416258A1, “BENZ[…], AND PREPARATION METHOD THEREFOR AND USE THEREOF” (CHINA PHARMACEUTICAL UNIVERSITY, priority 2020, published 2023)

Test system: KM mice
Assay: Test for drug-induced disappearance of righting reflex in mice
Format: in vivo
Settings: single rapid bolus via tail vein
Summary of the method: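 Female KM mice (18–25 g), randomly grouped, given a single rapid bolus via tail vein. Latency (administration to loss of righting reflex) and duration (loss to recovery) recorded.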

Structure (SMILES)	Duration (30 mg/kg) [min]	Latency (30 mg/kg) [min]	Duration (60 mg/kg) [min]	Latency (60 mg/kg) [min]	Duration (100 mg/kg) [min]	Latency (100 mg/kg) [min]
COC(=O)CC[C@@H]1N=C(c2ccccc2F)c2cc(Br)ccc2-n2c(SCCCN3CCN(CCO)CC3)nnc21 [Compound 67, methyl (S)-3-(8-bromo-6-(2-fluorophenyl)-1-((3-(4-(2-hydroxyethyl)piperazin-1-yl)propyl)thio)-4H-benzo[f][1,2,4]triazolo[4,3-a][1,4]diazepin-4-yl)propionate]	11.37	0.84				
COC(=O)CC[C@@H]1N=C(c2ccccc2F)c2cc([N+](=O)[O-])ccc2-n2c(SCCCN3CCN(CCO)CC3)nnc21 [Compound 68, methyl (S)-3-(8-nitro-6-(2-fluorophenyl)-1-((3-(4-(2-hydroxyethyl)piperazin-1-yl)propyl)thio)-4H-benzo[f][1,2,4]triazolo[4,3-a][1,4]diazepin-4-yl)propionate]			15.02	0.68		
COC(=O)CC[C@@H]1N=C(c2ccccc2F)c2cc(Cl)ccc2-n2c(SCN3CCOCC3)nnc21 [Compound 69, methyl (S)-3-(8-chloro-6-(2-fluorophenyl)-1-((morpholinomethyl)thio)-4H-benzo[f][1,2,4]triazolo[4,3-a][1,4]diazepin-4-yl)propionate]	21.61	0.90				
COC(=O)CC[C@@H]1N=C(c2ccccc2F)c2cc(Br)ccc2-n2c(SCN3CCOCC3)nnc21 [Compound 70, methyl (S)-3-(8-bromo-6-(2-fluorophenyl)-1-((morpholinomethyl)thio)-4H-benzo[f][1,2,4]triazolo[4,3-a][1,4]diazepin-4-yl)propionate]	18.61	1.01				
COC(=O)CC[C@@H]1N=C(c2ccccc2F)c2cc([N+](=O)[O-])ccc2-n2c(SCN3CCOCC3)nnc21 [Compound 71, methyl (S)-3-(8-nitro-6-(2-fluorophenyl)-1-((morpholinomethyl)thio)-4H-benzo[f][1,2,4]triazolo[4,3-a][1,4]diazepin-4-yl)propionate]			12.10	0.56		
COC(=O)CC[C@@H]1N=C(c2ccccc2F)c2cc(Cl)ccc2-n2c(SCN3CCN(c4ccccc4)CC3)nnc21 [Compound 72, methyl (S)-3-(8-chloro-6-(2-fluorophenyl)-1-(((4-phenylpiperazin-1-yl)methyl)thio)-4H-benzo[f][1,2,4]triazolo[4,3-a][1,4]diazepin-4-yl)propionate]	13.12	0.42	10.67	1.52		
COC(=O)CC[C@@H]1N=C(c2ccccc2F)c2cc(Br)ccc2-n2c(SCN3CCN(c4ccccc4)CC3)nnc21 [Compound 73, methyl (S)-3-(8-bromo-6-(2-fluorophenyl)-1-(((4-phenylpiperazin-1-yl)methyl)thio)-4H-benzo[f][1,2,4]triazolo[4,3-a][1,4]diazepin-4-yl)propionate]	12.12	0.86				
COC(=O)CC[C@@H]1N=C(c2ccccc2F)c2cc([N+](=O)[O-])ccc2-n2c(SCN3CCN(c4ccccc4)CC3)nnc21 [Compound 74, methyl (S)-3-(8-nitro-6-(2-fluorophenyl)-1-(((4-phenylpiperazin-1-yl)methyl)thio)-4H-benzo[f][1,2,4]triazolo[4,3-a][1,4]diazepin-4-yl)propionate]	6.16	0.47				
COC(=O)CC[C@@H]1N=C(c2ccccc2Cl)c2cc(Cl)ccc2-n2c(SCC3CC3)nnc21 [Compound 75, methyl (S)-3-(8-chloro-6-(2-chlorophenyl)-1-((cyclopropylmethyl)thio)-4H-benzo[f][1,2,4]triazolo[4,3-a][1,4]diazepin-4-yl)propionate]	6.53	0.51				
COC(=O)CC[C@@H]1N=C(c2ccccc2Cl)c2cc(Br)ccc2-n2c(SCC3CC3)nnc21 [Compound 76, methyl (S)-3-(8-bromo-6-(2-chlorophenyl)-1-((cyclopropylmethyl)thio)-4H-benzo[f][1,2,4]triazolo[4,3-a][1,4]diazepin-4-yl)propionate]	5.65	0.76				
COC(=O)CC[C@@H]1N=C(c2ccccc2Cl)c2cc([N+](=O)[O-])ccc2-n2c(SCC3CC3)nnc21 [Compound 77, methyl (S)-3-(8-nitro-6-(2-chlorophenyl)-1-((cyclopropylmethyl)thio)-4H-benzo[f][1,2,4]triazolo[4,3-a][1,4]diazepin-4-yl)propionate]	5.69	0.38				
C#CCSc1nnc2n1-c1ccc(Cl)cc1C(c1ccccc1Cl)=N[C@H]2CCC(=O)OC [Compound 78, methyl (S)-3-(8-chloro-6-(2-chlorophenyl)-1-(prop-2-yn-1-ylthio)-4H-benzo[f][1,2,4]triazolo[4,3-a][1,4]diazepin-4-yl)propionate]	12.67	1.05				
C#CCSc1nnc2n1-c1ccc(Br)cc1C(c1ccccc1Cl)=N[C@H]2CCC(=O)OC [Compound 79, methyl (S)-3-(8-bromo-6-(2-chlorophenyl)-1-(prop-2-yn-1-ylthio)-4H-benzo[f][1,2,4]triazolo[4,3-a][1,4]diazepin-4-yl)propionate]	6.93	0.57				
C#CCSc1nnc2n1-c1ccc([N+](=O)[O-])cc1C(c1ccccc1Cl)=N[C@H]2CCC(=O)OC [Compound 80, methyl (S)-3-(8-nitro-6-(2-chlorophenyl)-1-(prop-2-yn-1-ylthio)-4H-benzo[f][1,2,4]triazolo[4,3-a][1,4]diazepin-4-yl)propionate]			13.57	0.86		
COC(=O)CC[C@@H]1N=C(c2ccccc2Cl)c2cc(Cl)ccc2-n2c(SCCN3CCOCC3)nnc21 [Compound 81, methyl (S)-3-(8-chloro-6-(2-chlorophenyl)-1-((2-morpholinoethyl)thio)-4H-benzo[f][1,2,4]triazolo[4,3-a][1,4]diazepin-4-yl)propionate]			6.41	0.21	12.38	0.22
CCN(CC)CCSc1nnc2n1-c1ccc(Cl)cc1C(c1ccccc1Cl)=N[C@H]2CCC(=O)OC [Compound 84, methyl (S)-3-(8-chloro-6-(2-chlorophenyl)-1-((2-(diethylamino)ethyl)thio)-4H-benzo[f][1,2,4]triazolo[4,3-a][1,4]diazepin-4-yl)propionate]	21.9	0.31				
CCN(CC)CCSc1nnc2n1-c1ccc(Br)cc1C(c1ccccc1Cl)=N[C@H]2CCC(=O)OC [Compound 85, methyl (S)-3-(8-bromo-6-(2-chlorophenyl)-1-((2-(diethylamino)ethyl)thio)-4H-benzo[f][1,2,4]triazolo[4,3-a][1,4]diazepin-4-yl)propionate]			13.12	0.67		
CCN(CC)CCSc1nnc2n1-c1ccc([N+](=O)[O-])cc1C(c1ccccc1Cl)=N[C@H]2CCC(=O)OC [Compound 86, methyl (S)-3-(8-nitro-6-(2-chlorophenyl)-1-((2-(diethylamino)ethyl)thio)-4H-benzo[f][1,2,4]triazolo[4,3-a][1,4]diazepin-4-yl)propionate]	18.62	0.62				
COC(=O)CC[C@@H]1N=C(c2ccccc2Cl)c2cc(Cl)ccc2-n2c(SCCCN(C)C)nnc21 [Compound 87, methyl (S)-3-(8-chloro-6-(2-chlorophenyl)-1-((3-(dimethylamino)propyl)thio)-4H-benzo[f][1,2,4]triazolo[4,3-a][1,4]diazepin-4-yl)propionate]			21.17	0.73		
COC(=O)CC[C@@H]1N=C(c2ccccc2Cl)c2cc(Br)ccc2-n2c(SCCCN(C)C)nnc21 [Compound 88, methyl (S)-3-(8-bromo-6-(2-chlorophenyl)-1-((3-(dimethylamino)propyl)thio)-4H-benzo[f][1,2,4]triazolo[4,3-a][1,4]diazepin-4-yl)propionate]	15.82	0.53				
COC(=O)CC[C@@H]1N=C(c2ccccc2Cl)c2cc([N+](=O)[O-])ccc2-n2c(SCCCN(C)C)nnc21 [Compound 89, methyl (S)-3-(8-nitro-6-(2-chlorophenyl)-1-((3-(dimethylamino)propyl)thio)-4H-benzo[f][1,2,4]triazolo[4,3-a][1,4]diazepin-4-yl)propionate]			9.88	0.83		
COC(=O)CC[C@@H]1N=C(c2ccccc2Cl)c2cc(Cl)ccc2-n2c(SCCN3CCN(C)CC3)nnc21 [Compound 90, methyl (S)-3-(8-chloro-6-(2-chlorophenyl)-1-((2-(4-methylpiperazin-1-yl)ethyl)thio)-4H-benzo[f][1,2,4]triazolo[4,3-a][1,4]diazepin-4-yl)propionate]	15.26	0.67				
COC(=O)CC[C@@H]1N=C(c2ccccc2Cl)c2cc(Br)ccc2-n2c(SCCN3CCN(C)CC3)nnc21 [Compound 91, methyl (S)-3-(8-bromo-6-(2-chlorophenyl)-1-((2-(4-methylpiperazin-1-yl)ethyl)thio)-4H-benzo[f][1,2,4]triazolo[4,3-a][1,4]diazepin-4-yl)propionate]	17.33	1.80				
COC(=O)CC[C@@H]1N=C(c2ccccc2Cl)c2cc([N+](=O)[O-])ccc2-n2c(SCCN3CCN(C)CC3)nnc21 [Compound 92, methyl (S)-3-(8-nitro-6-(2-chlorophenyl)-1-((2-(4-methylpiperazin-1-yl)ethyl)thio)-4H-benzo[f][1,2,4]triazolo[4,3-a][1,4]diazepin-4-yl)propionate]			10.12	2.00		
COC(=O)CC[C@@H]1N=C(c2ccccc2Cl)c2cc(Cl)ccc2-n2c(SC3CCN(C)CC3)nnc21 [Compound 93, methyl (S)-3-(8-chloro-6-(2-chlorophenyl)-1-((1-methylpiperidin-4-yl)thio)-4H-benzo[f][1,2,4]triazolo[4,3-a][1,4]diazepin-4-yl)propionate]	12.41	0.58				
